Laboratory results from US20200261421A1, “HETEROCYCLIC COMPOUNDS AS HIV PROTEASE INHIBITORS” (Merck Sharp & Dohme Corp., priority 2016, published 2020).

Molecular target: T1, wild-type HIV-1 protease (Human immunodeficiency virus type 1 group M subtype B, UniProt P04585)
T1 construct: Escherichia coli expressed wild-type HIV-1 protease protein; made in house; host or cells: Escherichia coli
Experiment: Assay for Inhibition of Microbial Expressed HIV Protease
Type: biochemical
Conditions: Escherichia coli expressed wild-type HIV-1 protease, peptide substrate cleavage; mean of at least two independent experiments
Experimental: Inhibition of Escherichia coli expressed wild-type HIV-1 protease protein was carried out with a peptide substrate [Val-Ser-Gln-Asn-Wnaphtyl)Ala-Pro-Ile-Val]. The inhibitor compound was preincubated with HIV-1 protease enzyme in assay buffer (50 mM sodium acetate, pH 5.5, 100 mM NaCl, and 0.1% BSA) for 30 minutes at room temperature. Peptide substrate was added to 400 μM in a total volume of 20 μL containing 20 pM HIV-1 protease (final) after which the reaction was incubated for 1 hour at 30° C. The reaction was quenched by the addition of formic acid and HIV protease inhibitor indinavir to 0.012% and 150 nM final concentrations, respectively. Product formation was determined after separation of product and substrate on a ZORBAX Eclipse XDB-C18 column (Aligent Technologies, Santa Clara, Calif., USA) connected to an API 4000™ mass spectrometer (AB Sciex, Pte. Ltd., Concord Ontario, Canada) with multiple reaction monitoring (transitions were 644.5/428.9 and 615.4/422.2 (M1/M3) for product and indinavir respectively). The extent of inhibition of the reaction was determined from the peak area of the products. Analysis of the products, independently synthesized, provided quantitation standards and confirmation of the product composition. […] Ic50's refer to the 50% inhibition of the cleavage of a peptide substrate by hiv protease.
Data shown in the table reflects the mean of at least two independent experiments.

SMILES	IC50
CC(C)CC1(c2ccccc2)NC(=N)N(Cc2ccc(C(F)(F)F)c(C(=O)NCc3ccc(C#N)cc3)c2)C1=O (stereo not shown) [Example 1, N-(4-cyanobenzyl)-5-{[2-imino-4-(2-methylpropyl)-5-oxo-4-phenylimidazolidin-1-yl]methyl}-2-(trifluoromethyl)benzamide]	16 nM
CN(Cc1ccc(C#N)cc1)C(=O)c1cc(CN2C(=N)NC(c3ccccc3)(c3ccccc3)C2=O)ccc1C(F)(F)F [Example 2, N-(4-cyanobenzyl)-5-[(2-imino-5-oxo-4,4-diphenylimidazolidin-1-yl)methyl]-N-methyl-2-(trifluoromethyl)benzamide]	18.2 nM
CN(Cc1ccccc1S(C)(=O)=O)C(=O)c1cc(CN2C(=N)NC(c3ccccc3)(c3ccccc3)C2=O)ccc1C(F)(F)F [Example 3, 5-[(2-imino-5-oxo-4,4-diphenylimidazolidin-1-yl)methyl]-N-methyl-N-[2-(methylsulfonyl)benzyl]-2-(trifluoromethyl)benzamide]	22.3 nM
N=C1NC(c2ccc(F)cc2)(c2ccc(F)cc2)C(=O)N1Cc1ccc(C(F)(F)F)c(C(=O)NCc2cnccn2)c1 [Example 4, 5-{[4,4-bis(4-fluorophenyl)-2-imino-5-oxoimidazolidin-1-yl]methyl}-N-(pyrazin-2-ylmethyl)-2-(trifluoromethyl)benzamide]	30.9 nM
N#Cc1ccc(CNC(=O)c2cc(CN3C(=N)NC(c4ccc(F)cc4)(c4ccc(F)cc4)C3=O)ccc2C(F)(F)F)cc1 [Example 5, 5-{[4,4-bis(4-fluorophenyl)-2-imino-5-oxoimidazolidin-1-yl]methyl}-N-(4-cyanobenzyl)-2-(trifluoromethyl)benzamide]	43 nM
CC(C)CC1(c2ccccc2)NC(=N)N(Cc2ccc(C(F)(F)F)c(C(=O)NCc3cnccn3)c2)C1=O (stereo not shown) [Example 6, 5-{[2-imino-4-(2-methylpropyl)-5-oxo-4-phenylimidazolidin-1-yl]methyl}-N-(pyrazin-2-ylmethyl)-2-(trifluoromethyl)benzamide]	46.4 nM
N=C1NC(c2ccccc2)(c2ccccc2)C(=O)N1Cc1ccc(C(F)(F)F)c(C(=O)NCc2ccccc2OC(F)F)c1 [Example 7, N-[2-(difluoromethoxy)benzyl]-5-[(2-imino-5-oxo-4,4-diphenylimidazolidin-1-yl)methyl]-2-(trifluoromethyl)benzamide]	52.4 nM
CC(C)CCC1(c2ccccc2)NC(=N)N(Cc2ccc(C(F)(F)F)c(C(=O)NCc3ncccn3)c2)C1=O (stereo not shown) [Example 8, 5-{[2-imino-4-(3-methylbutyl)-5-oxo-4-phenylimidazolidin-1-yl]methyl}-N-(pyrimidin-2-ylmethyl)-2-(trifluoromethyl)benzamide]	54.6 nM
N=C1NC(c2ccccc2)(c2ccccc2)C(=O)N1Cc1ccc(C(F)(F)F)c(C(=O)NCc2cccc(OC(F)F)c2)c1 [Example 9, N-[3-(difluoromethoxy)benzyl]-5-[(2-imino-5-oxo-4,4-diphenylimidazolidin-1-yl)methyl]-2-(trifluoromethyl)benzamide]	68.4 nM
CC(C)CCC1(c2ccccc2)NC(=N)N(Cc2ccc(C(F)(F)F)c(C(=O)NCC(F)F)c2)C1=O (stereo not shown) [Example 10, N-(2,2-difluoroethyl)-5-{[2-imino-4-(3-methylbutyl)-5-oxo-4-phenylimidazolidin-1-yl]methyl}-2-(trifluoromethyl)benzamide]	91.2 nM
CC(C)CC1(c2ccccc2)NC(=N)N(Cc2ccc(C(F)(F)F)c(C(=O)NCc3ncccn3)c2)C1=O (stereo not shown) [Example 11, 5-{[2-imino-4-(2-methylpropyl)-5-oxo-4-phenylimidazolidin-1-yl]methyl}-N-(pyrimidin-2-ylmethyl)-2-(trifluoromethyl)-benzamide]	92.1 nM
N=C1NC(c2ccccc2)(c2ccccc2)C(=O)N1Cc1ccc(C(F)(F)F)c(C(=O)NCc2ccc(OC(F)F)cc2)c1 [Example 12, N-[4-(difluoromethoxy)benzyl]-5-[(2-imino-5-oxo-4,4-diphenylimidazolidin-1-yl)methyl]-2-(trifluoromethyl)benzamide]	94.1 nM
CN(Cc1ccc(C#N)cc1)C(=O)c1cccc(CN2C(=N)NC(c3ccc(F)cc3)(c3ccc(F)cc3)C2=O)c1 [Example 13, 3-{[4,4-bis(4-fluorophenyl)-2-imino-5-oxoimidazolidin-1-yl]methyl}-N-(4-cyanobenzyl)-N-methylbenzamide]	6.69 nM
CC(C)CCC1(c2ccccc2)NC(=N)N(Cc2cccc(C(=O)N(C)Cc3ccc(C#N)cc3)c2)C1=O (stereo not shown) [Example 14, N-(4-cyanobenzyl)-3-{[2-imino-4-(3-methylbutyl)-5-oxo-4-phenylimidazolidin-1-yl]methyl}-N-methylbenzamide]	7.35 nM
CC(C)CC[C@]1(c2ccccc2)NC(=N)N([C@H](C)c2cccc(C(=O)N(C)Cc3ccc(F)cc3)c2)C1=O [Example 15, N-(4-fluorobenzyl)-3-{(1R)-1-[2-imino-4-(3-methylbutyl)-5-oxo-4-phenylimidazolidin-1-yl]ethyl}-N-methylbenzamide]	9.11 nM
CC(C)CC1(c2ccc(F)cc2)NC(=N)N(Cc2cccc(C(=O)N(C)Cc3ccc(Cl)cc3)c2)C1=O (stereo not shown) [Example 16, N-(4-chlorobenzyl)-3-{[4-(4-fluorophenyl)-2-imino-4-(2-methylpropyl)-5-oxoimidazolidin-1-yl]methyl}-N-methylbenzamide]	9.12 nM
CC(C)CCC1(c2ccccc2)NC(=N)N(Cc2cccc(C(=O)N(C)Cc3ccc(F)cc3)c2)C1=O (stereo not shown) [Example 17, N-(4-fluorobenzyl)-3-{[2-imino-4-(3-methylbutyl)-5-oxo-4-phenylimidazolidin-1-yl]methyl}-N-methylbenzamide]	10.3 nM
CN(Cc1ccc(Cl)nc1)C(=O)c1cccc(CN2C(=N)NC(c3ccc(F)cc3)(c3ccc(F)cc3)C2=O)c1 [Example 18, 3-{[4,4-bis(4-fluorophenyl)-2-imino-5-oxoimidazolidin-1-yl]methyl}-N-[(6-chloropyridin-3-yl)methyl]-N-methylbenzamide]	10.3 nM
CN(Cc1ccc(Cl)cc1)C(=O)c1cccc(CN2C(=N)NC(c3ccc(F)cc3)(c3cccc(C(N)=O)c3)C2=O)c1 (stereo not shown) [Example 19, 3-{[4-(3-carbamoylphenyl)-4-(4-fluorophenyl)-2-imino-5-oxoimidazolidin-1-yl]methyl}-N-(4-chlorobenzyl)-N-methylbenzamide]	11.6 nM
C[C@H](c1ccc(F)cc1)N(C)C(=O)c1cccc(CN2C(=N)NC(c3ccccc3)(c3ccccc3)C2=O)c1 [Example 20, N-[(1R)-1-(4-fluorophenyl)ethyl]-3-[(2-imino-5-oxo-4,4-diphenylimidazolidin-1-yl)methyl]-N-methylbenzamide]	11.7 nM
CN(Cc1ccc(Cl)cn1)C(=O)c1cccc(CN2C(=N)NC(c3ccc(F)cc3)(c3ccc(F)cc3)C2=O)c1 [Example 21, 3-{[4,4-bis(4-fluorophenyl)-2-imino-5-oxoimidazolidin-1-yl]methyl}-N-[(5-chloropyridin-2-yl)methyl]-N-methylbenzamide]	12.7 nM
CC(C)CCC1(c2ccc(F)cc2)NC(=N)N(Cc2cccc(C(=O)N(C)Cc3ccc(Cl)cc3)c2)C1=O (stereo not shown) [Example 22, N-(4-chlorobenzyl)-3-{[4-(4-fluorophenyl)-2-imino-4-(3-methylbutyl)-5-oxoimidazolidin-1-yl]methyl}-N-methylbenzamide]	12.9 nM
